Patent US8455499B2, “Alkyne antagonists of lysophosphatidic acid receptors” (Amira Pharmaceuticals, Inc., priority 2008, dated 2013)

Target: T1, human LPA1 (Homo sapiens, UniProt Q92633)
T1 construct: the full-length cDNA for human LPA1 was obtained by PCR of the reverse transcription reaction; expressed in transfected cells
Test: HLPA1 Ca Flux assay (LPA1 calcium flux assay)
Type: cell-based
Conditions: CHO cells stably expressing human LPA1; stimulated by 10 nM LPA; intracellular Ca2+
Method: A 1.1 kb cDNA encoding the human LPA1 receptor was cloned from human lung. Human lung RNA (Clontech Laboratories, Inc. USA) was reverse transcribed using the RETROscript kit (Ambion, Inc.) and the full-length cDNA for human LPA1 was obtained by PCR of the reverse transcription reaction. The nucleotide sequence of the cloned human LPA1 was determined by sequencing and confirmed to be identical to the published human LPA1 sequence (An et al. Biochem. Biophys. Res. Commun. 231:619 (1997). The cDNA was cloned into the pCDNA5/FRT expression plasmid and transfected in CHO cells using lipofectamine 2000 (Invitrogen Corp., USA). Clones stably expressing human LPA1 were selected using hygromycin and identified as cells that show Ca-influx in response to LPA.
Human LPA1 or LPA3 expressing CHO cells are seeded at 20,000-45,000 cells per well in a 96-well poly-D-lysine coated plate one or two days before the assay. Prior to the assay, the cells are washed once with PBS and then cultured in serum-free media overnight. On the day of the assay, a calcium indicator dye (Calcium 4, Molecular Devices) in assay buffer (HBSS with Ca^2+ and Mg^2+ and containing 20 mM Hepes and 0.3% fatty-acid free human serum albumin) is added to each well and incubation continued for 1 hour at 37° C. 10 μl of test compounds in 2.5% DMSO are added to the cells and incubation continued at room temperature for 30 minutes. Cells are the stimulated by the addition of 10 nM LPA and intracellular Ca^2+ measured using the Flexstation 3 (Molecular Devices). IC50s are determined using Graphpad prism analysis of drug titration curves.

T1 sequence (Q92633 whole entry): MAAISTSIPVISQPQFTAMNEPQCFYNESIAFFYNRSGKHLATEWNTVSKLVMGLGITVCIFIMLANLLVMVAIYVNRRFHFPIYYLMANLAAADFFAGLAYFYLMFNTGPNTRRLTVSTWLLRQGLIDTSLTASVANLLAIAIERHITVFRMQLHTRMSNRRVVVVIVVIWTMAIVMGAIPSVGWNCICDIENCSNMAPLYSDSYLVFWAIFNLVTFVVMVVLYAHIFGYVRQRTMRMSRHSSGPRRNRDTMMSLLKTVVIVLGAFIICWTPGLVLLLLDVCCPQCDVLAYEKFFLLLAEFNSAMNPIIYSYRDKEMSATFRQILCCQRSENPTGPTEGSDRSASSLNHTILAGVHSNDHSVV

| SMILES | IC50 |
| --- | --- |
| Cc1noc(-c2ccc(C#CCC(C)(C)C(=O)O)cc2)c1NC(=O)OC(C)c1ccccc1Cl (centres unmarked) [Compound 1-4, 5-(4-{4-[1-(2-Chloro-phenyl)-ethoxycarbonylamino]-3-methyl-isoxazol-5-yl}-phenyl)-2,2-dimethyl-pent-4-ynoic acid] | < 300 nM |
| Cc1noc(-c2ccc(C#CCn3cnc(C(=O)O)c3)cc2)c1NC(=O)OC(C)c1ccccc1Cl (centres unmarked) [Compound 2-3, 1-[3-(4-{4-[1-(2-Chloro-phenyl)-ethoxycarbonylamino]-3-methyl-isoxazol-5-yl}-phenyl)-prop-2-ynyl]-1H-imidazole-4-carboxylic acid] | < 300 nM |
| Cc1noc(-c2ccc(C#CCn3cncn3)cc2)c1NC(=O)OC(C)c1ccccc1Cl (centres unmarked) [Compound 3-1] | < 300 nM |
| Cc1noc(-c2ccc(C#CCCCC(=O)O)cc2)c1NC(=O)OC(C)c1ccccc1Cl (centres unmarked) [Compound 1-2, 6-(4-{4-[1-(2-Chloro-phenyl)-ethoxycarbonylamino]-3-methyl-isoxazol-5-yl}-phenyl)-hex-5-ynoic acid] | < 300 nM |
| Cc1noc(-c2ccc(C#CCCC(=O)O)cc2)c1NC(=O)OC(C)c1ccccc1Cl (centres unmarked) [Compound 1-1, 5-(4-{4-[1-(2-Chloro-phenyl)-ethoxycarbonylamino]-3-methyl-isoxazol-5-yl}-phenyl)-pent-4-ynoic acid] | < 300 nM |
| Cc1noc(-c2ccc(C#CCn3ncc(C(=O)O)c3C(F)(F)F)cc2)c1NC(=O)OC(C)c1ccccc1Cl (centres unmarked) [Compound 2-1, 1-[3-(4-{4-[1-(2-Chloro-phenyl)-ethoxycarbonylamino]-3-methyl-isoxazol-5-yl}-phenyl)-prop-2-ynyl]-5-trifluoromethyl-1H-pyrazole-4-carboxylic acid] | > 1000 nM |
| Cc1noc(-c2ccc(C#CCn3cc(C(=O)O)cn3)cc2)c1NC(=O)OC(C)c1ccccc1Cl (centres unmarked) [Compound 2-2, 1-[3-(4-{4-[1-(2-Chloro-phenyl)-ethoxycarbonylamino]-3-methyl-isoxazol-5-yl}-phenyl)-prop-2-ynyl]-1H-pyrazole-4-carboxylic acid] | 300 to 1000 nM |
| Cc1noc(-c2ccc(C#CCCCCC(=O)O)cc2)c1NC(=O)OC(C)c1ccccc1Cl (centres unmarked) [Compound 1-3, 7-(4-{4-[1-(2-Chloro-phenyl)-ethoxycarbonylamino]-3-methyl-isoxazol-5-yl}-phenyl)-hept-6-ynoic acid] | < 300 nM |
